# Reference: patent US12220395B2, “Intermittent endurance capacity improving agent or blood pH elevating agent” (AJINOMOTO CO., INC., priority 2018, dated 2025)
# Columns and labels:
# C57BL/6J male mice [1] = experiment: mouse YO-YO test (intermittent endurance capacity, treadmill); format: in vivo; details: 6-week-old mice; oral aqueous solution 1 to 2 g/kg; YO-YO test from 30 min after administration; compared to water (negative control); FIG. 1
# Protocol: After ingesting a test substance into 6-week-old C57BL/6J male mice, a mouse YO-YO test was conducted to evaluate an intermittent endurance capacity improving effect of the test substance using the intermittent endurance capacity of each individual as an index. As the test substance, 20 kinds of amino acids (or salts thereof) were used.
# Preliminary running was performed on the mice one week before the main test. […] Unable to run was judged when the mouse could not keep up with the running speed. […] Grouping was performed such that the number of running sets and body weight of each individual obtained in the preliminary running were about the same for each group.
# In the week following the preliminary running, the mice evaluated for the intermittent endurance capacity were orally administered with an aqueous solution containing a test substance in a dose of 1 to 2 g/kg mouse body weight, or water (negative control) at 20 mL/kg mouse body weight. […] From 30 min after the oral administration, the above-mentioned YO-YO test was performed to evaluate the effect of the test substance on the number of runnable sets of each individual. […]
# C57BL/6J male mice [2] = experiment: increase in mouse plasma pH by oral administration; details: for blood (plasma) pH increasing effect, time course: 7- to 9-week-old mice, aspartic acid 1 g/kg, blood sampled 30, 60, 120 min after administration, i-STAT, FIGS. 2 and 3
Structure (SMILES),increase in the number of runnable sets (intermittent endurance capacity improving effect) (C57BL/6J male mice [1]),"blood (plasma) pH increasing effect, time course (C57BL/6J male mice [2])","time of peak of the pH increasing effect (C57BL/6J male mice [2]; plasma pH, mice, FIG. 2) [hr]"
N[C@@H](Cc1ccc(O)cc1)C(=O)O [tyrosine],significantly increased the number of runnable sets,–,–
O=C([O-])O.[Na+] [sodium hydrogen carbonate],–,the pH increasing effect disappeared rapidly thereafter,0.5
N[C@@H](CC(=O)O)C(=O)O [aspartic acid],significantly increased the number of runnable sets,affords an effect of increasing blood pH even after 0.5 hr to 2 hr from the administration,–
